Laboratory results from patent US6559100B1, “2-benzoyl-cyclohexane-1,3-diones” (BASF Aktiengesellschaft, priority 1997, dated 2003).

Assays:
Assay in all cases: Greenhouse herbicidal activity, post-emergence treatment
Details in all cases: 0.5 or 0.25 kg/ha of a.s.
Chenopodium album = assay type: in vivo, Chenopodium album (lambsquarters, goosefoot)
Excerpt: (§1) The culture containers used were plastic pots containing loamy sand with approximately 3.0% of humus as the substrate. The seeds of the test plants were sown separately for each species.
(§2) For the post-emergence treatment, the test plants were first grown to a height of 3 to 15 cm, depending on the plant habit, and only then treated with the active compounds which had been emulsified or suspended in water. The test plants were for this purpose either sown directly and grown in the same containers, or they were first grown separately as seedlings and transplanted into the test containers a few days prior to treatment. The application rate for the post-emergence treatment was 0.5 or 0.25 kg/ha of a.s.
(§3) Depending on the species, the plants were kept at 10-25° C. or 20-35° C. . The test period extended over 2 to 4 weeks. During this time, the plants were tended, and their response to the individual treatments was evaluated.
(§4) The evaluation was carried out using a scale from 0 to 100. 100 means no emergence of the plants, or complete destruction of at least the aerial parts, and 0 means no damage, or normal course of growth.
(§5) The plants used in the greenhouse trials were from the following species:
(§6) Herbicidal activity when employed by the post-emergence method (greenhouse) [drawing 20]

Setaria viridis = assay type: in vivo, Setaria viridis (green foxtail)
Excerpt: as §1, §2, §3, §4, §5, §6

Sinapis alba = assay type: in vivo, Sinapis alba (white mustard)
Excerpt: as §1, §2, §3, §4, §5, §6

Solanum nigrum = assay type: in vivo, Solanum nigrum (black nightshade)
Excerpt: as §1, §2, §3, §4, §5, §6

Measured: control of the weed (herbicidal activity)

CC1(C)C(=O)C(C(=O)c2ccc(Cl)c(CC3=NOCC3)c2Cl)=C(O)C(C)(C)C1=O [Compound 37.2, 2,4-Dichloro-3-((4,5-dihydro-3-isoxazolylmethyl)phenyl)(3,3,6,6-tetramethylcyclohexane-1,3,5-trione)methanone]
very efficient control: all assays above
